Consider 2 molecules from article PMC11582070, “Template-assisted covalent modification underlies activity of covalent molecular glues” (Nature Chemical Biology, 2023).

The target in assay [1] is T1, DCAF16 (Homo sapiens, UniProt O60885+Q9NXF7).
T1 construct: full length, in complex with DDB1ΔB; with BRD4 BD2 (template), DDB1ΔB
Description: intact protein MS; TR-FRET. The assay is classed as binding. (In general: In TR-FRET formats the signal depends on donor and acceptor labels being close together.)

For assay [2], the target named is T1, DCAF16. Description: intact protein MS ([…] adduct alone, […] with BRD4BD2; none with C58S); TR-FRET. The format is binding.

SMILES strings stand for the structures.

As for `C=CC(=O)Nc1ccc(C2=N[C@@H](CC(=O)OC(C)(C)C)c3nnc(C)n3-c3sc(C)c(C)c32)cc1` [compound 3, MMH1], in assay [1], the “intact protein MS; TR-FRET” value is “DCAF16 intact mass spectrometry experiments on MMH1 and MMH2 and found similar template-assisted covalent modifications”.
Turning to `Cc1sc2c(c1C)C(c1ccc(/C=C/C=O)cc1)=N[C@@H](CC(=O)OC(C)(C)C)c1nnc(C)n1-2` [compound 2, TMX1], the “intact protein MS (8% adduct alone, 50% with BRD4BD2; none with C58S); TR-FRET” value in assay [2] was “By intact mass spectrometry, the DCAF16 C58S mutant completely eliminated DCAF16–TMX1 adduct formation”.
